Drawing on US20240025912A1 (Merck Sharp & Dohme LLC, priority 2022, published 2024), this text covers EC50 for 27 compounds.

In the assay the target is GST-RIPK1 (recombinant GST-RIPK1 kinase domain (residues 1-327)) (Homo sapiens (Human), UniProt Q13546). In words: RIPK1-ADP-Glo Enzymatic Assay. The format is biochemical. The settings on record: 25 nM GST-RIPK1, 300 μM ATP, 3 μM dephosphorylated-MBP, 30 min pre-incubation, 150 min reaction. On the procedure: The enzymatic activity of RIPK1 is measured using an assay derived from ADP-Glo kit (TMPromega), which provides a luminescent-based ADP detection system. Specifically, the ADP generated by RIPK1 kinase is proportionally detected as luminescent signals in a homogenous fashion. In this context, the assessment of the inhibitory effect of small molecules (EC50) is measured by the effectiveness of the compounds to inhibit the ATP to ADP conversion by RIPK1.
GST-RIPK1 (recombinant GST-RIPK1 kinase domain (residues 1-327)), sequence (Q13546 1-327): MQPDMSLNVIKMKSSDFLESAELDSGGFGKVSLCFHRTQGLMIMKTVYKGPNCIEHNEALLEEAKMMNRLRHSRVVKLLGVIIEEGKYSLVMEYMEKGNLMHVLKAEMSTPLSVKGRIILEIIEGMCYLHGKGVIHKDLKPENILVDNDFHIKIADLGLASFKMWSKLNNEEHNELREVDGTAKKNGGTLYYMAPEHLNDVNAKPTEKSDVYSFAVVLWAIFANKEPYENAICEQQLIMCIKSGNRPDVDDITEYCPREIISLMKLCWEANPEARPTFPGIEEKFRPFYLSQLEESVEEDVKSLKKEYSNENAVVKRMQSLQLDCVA
In this assay, the potency (EC50) of each compound was determined from a ten-point (1:3 serial dilution; top compound concentration of 100000 nM) titration curve using the following outlined procedure. To each well of a white ProxiPlus 384 well-plate, 30 nL of compound (1% DMSO in final assay volume of 3 μL) was dispensed, followed by the addition of 2 μL of 1× assay buffer (25 mM Hepes 7.3, 20 mM MgCl2, 50 mM NaCl, 1 mM DTT, 0.005% Tween20, and 0.02% BSA) containing 37.5 nM of GST-RIPK1 (recombinant GST-RIPK1 kinase domain (residues 1-327) enzyme produced from baculovirus-transfected Sf21 cells: MW 62 kDa). Plates were placed in an ambient temperature humidified chamber for a 30 min pre-incubation with compound. Subsequently, each reaction was initiated by the addition of 1 μL 1× assay buffer containing 900 μM ATP and 3 μM dephosphorylated-MBP substrate. The final reaction in each well of 3 μL consists of 25 nM of GST-RIPK1, 300 μM ATP, and 3 μM dephosphorylated-MBP. Kinase reactions were allowed to proceed for 150 min prior to adding ADP-Glo reagents per Promega's outlined kit protocol. Dose-response curves were generated by plotting percent effect (% product conversion; Y-axis) vs. Log 10 compound concentrations (X-axis). EC50 values were calculated using a non-linear regression, four-parameters sigmoidal dose-response model.
On the technique in general: In ADP-Glo the light output rises with the ADP produced.
In general, EC50 refers to the concentration at which the effect is half-maximal. Regarding `Cc1cc(F)cc(C2CCc3nn(C45CC(F)(C4)C5)c(=O)n32)c1` (racemic) [Compound 4-6, (±)-2-(3-fluorobicyclo[1.1.1]pentan-1-yl)-5-(3-fluoro-5-methylphenyl)-2,5,6,7-tetrahydro-3H-pyrrolo[2,1-c][1,2,4]triazol-3-one], the half-maximal effective concentration (EC50) amounted to 44.1 nM.

With `O=c1n(C23CC(F)(C2)C3)nc2n1[C@H](c1ccc(Cl)c(F)c1)CC2` [Compound 1-75, (S)-5-(4-chloro-3-fluorophenyl)-2-(3-fluorobicyclo[1.1.1]pentan-1-yl)-2,5,6,7-tetrahydro-3H-pyrrolo[2,1-c][1,2,4]triazol-3-one], the EC50 worked out at 17.1 nM.

Regarding `O=c1n(C23CC(C(F)F)(C2)C3)nc2n1[C@H](c1ccccc1)CC2` [Compound 1-31, (5S)-2-[3-(difluoromethyl)bicyclo[1.1.1]pentan-1-yl]-5-phenyl-2,5,6,7-tetrahydro-3H-pyrrolo[2,1-c][1,2,4]triazol-3-one], the EC50 turned out to be 36.8 nM.

Consider `COC12CCC(n3nc4n(c3=O)[C@H](c3cc(F)cc(F)c3)CC4)(CC1)C2` [Compound 1-26, (5S)-5-(3,5-difluorophenyl)-2-(4-methoxybicyclo[2.2.1]heptan-1-yl)-2,5,6,7-tetrahydro-3H-pyrrolo[2,1-c][1,2,4]triazol-3-one], for which the concentration for a half-maximal effect (EC50) was 377 nM.

For `O=c1n(C23CC(F)(C2)C3)nc2n1[C@H](c1ccccc1)CC2` [Compound 1-6, (5S)-2-(3-fluorobicyclo[1.1.1]pentan-1-yl)-5-phenyl-2,5,6,7-tetrahydro-3H-pyrrolo[2,1-c][1,2,4]triazol-3-one], the EC50 was found to be 51.2 nM.

Consider `CC(F)(F)C12CC(n3nc4n(c3=O)[C@H](c3cccc(F)c3)CC4)(C1)C2` [Compound 1-34, (5S)-2-[3-(1,1-difluoroethyl)bicyclo[1.1.1]pentan-1-yl]-5-(3-fluorophenyl)-2,5,6,7-tetrahydro-3H-pyrrolo[2,1-c][1,2,4]triazol-3-one], for which the EC50 was determined as 26.9 nM.

Regarding `COC(=O)C12CC(n3nc4n(c3=O)[C@H](c3cc(F)cc(F)c3)CC4)(C1)C2` [Compound 1-18, methyl 3-[(5S)-5-(3,5-difluorophenyl)-3-oxo-6,7-dihydro-3H-pyrrolo[2,1-c][1,2,4]triazol-2(5H)-yl]bicyclo[1.1.1]pentane-1-carboxylate], the 50% effective concentration (EC50) stood at 114 nM.

With `O=c1n(C23CCC(C2)C3)nc2n1[C@H](c1cnccn1)CC2` [Compound 1-61, (S)-2-(bicyclo[2.1.1]hexan-1-yl)-5-(pyrazin-2-yl)-2,5,6,7-tetrahydro-3H-pyrrolo[2,1-c][1,2,4]triazol-3-one], the EC50 stood at 696 nM.

Consider `N#CC12CCC(n3nc4n(c3=O)[C@H](c3cnccn3)CC4)(C1)C2` [Compound 1-60, (S)-4-(3-oxo-5-(pyrazin-2-yl)-6,7-dihydro-3H-pyrrolo[2,1-c][1,2,4]triazol-2(5H)-yl)bicyclo[2.1.1]hexane-1-carbonitrile], for which the concentration giving a half-maximal response (EC50) came out at 512 nM.

With `N#CC12CC(n3nc4n(c3=O)[C@H](c3cc(F)cc(F)c3)CC4F)(C1)C2` (single isomer, unassigned) [Compound 6-5, 3-[(5S)-5-(3,5-difluorophenyl)-7-(S or R)-fluoro-3-oxo-6,7-dihydro-3H-pyrrolo[2,1-c][1,2,4]triazol-2(5H)-yl]bicyclo[1.1.1]pentane-1-carbonitrile], the EC50 was 274 nM.

For the compound `N#CC12CC(n3nc4n(c3=O)[C@H](c3ccc(F)cc3)CC4)(C1)C2` [Compound 1-38, 3-[(5S)-5-(4-fluorophenyl)-3-oxo-6,7-dihydro-3H-pyrrolo[2,1-c][1,2,4]triazol-2(5H)-yl]bicyclo[1.1.1]pentane-1-carbonitrile], the EC50 turned out to be 160 nM.

Consider `O=c1n(C23CCC(CC2)C3)nc2n1[C@H](c1ccccc1)CC2` [Compound 1-1, (5S)-2-(bicyclo[2.2.1]heptan-1-yl)-5-phenyl-2,5,6,7-tetrahydro-3H-pyrrolo[2,1-c][1,2,4]triazol-3-one], for which the EC50 is 21.6 nM.

On to `COc1ccc([C@@H]2CCc3nn(C45CC(F)(C4)C5)c(=O)n32)cc1` [Compound 1-66, (S)-2-(3-fluorobicyclo[1.1.1]pentan-1-yl)-5-(4-methoxyphenyl)-2,5,6,7-tetrahydro-3H-pyrrolo[2,1-c][1,2,4]triazol-3-one], for which the EC50 turned out to be 85.8 nM.

`O=c1n(C23CC(Cl)(C2)C3)nc2n1[C@H](c1ccc(F)cn1)CC2` [Compound 1-71, (S)-2-(3-chlorobicyclo[1.1.1]pentan-1-yl)-5-(5-fluoropyridin-2-yl)-2,5,6,7-tetrahydro-3H-pyrrolo[2,1-c][1,2,4]triazol-3-one]: the 50% effective concentration (EC50) is 162 nM.

In the case of `O=c1n(C23CC(Cl)(C2)C3)nc2n1[C@H](c1cccc(F)c1)CC2` [Compound 1-42, (S)-2-(3-chlorobicyclo[1.1.1]pentan-1-yl)-5-(3-fluorophenyl)-2,5,6,7-tetrahydro-3H-pyrrolo[2,1-c][1,2,4]triazol-3-one], the EC50 came out at 18.5 nM.

As for `O=c1n(C23CC(F)(C2)C3)nc2n1[C@H](c1ccccc1F)CC2` [Compound 1-9, (5S)-2-(3-fluorobicyclo[1.1.1]pentan-1-yl)-5-(2-fluorophenyl)-2,5,6,7-tetrahydro-3H-pyrrolo[2,1-c][1,2,4]triazol-3-one], the concentration giving a half-maximal response (EC50) turned out to be 26.1 nM.

For the compound `O=c1n(C23CC(F)(C2)C3)nc2n1[C@H](c1c(F)cccc1F)CC2` [Compound 1-40, (S)-5-(2,6-difluorophenyl)-2-(3-fluorobicyclo[1.1.1]pentan-1-yl)-2,5,6,7-tetrahydro-3H-pyrrolo[2,1-c][1,2,4]triazol-3-one], the EC50 is 34 nM.

In the case of `Cc1c(F)cc([C@@H]2CCc3nn(C45CC(C#N)(C4)C5)c(=O)n32)cc1F` [Compound 1-51, (S)-3-(5-(3,5-difluoro-4-methylphenyl)-3-oxo-6,7-dihydro-3H-pyrrolo[2,1-c][1,2,4]triazol-2(5H)-yl)bicyclo[1.1.1]pentane-1-carbonitrile], the EC50 is 16.1 nM.

As for `N#CC12CCC(n3nc4n(c3=O)[C@H](c3cc(F)cc(F)c3)CC4)(C1)C2` [Compound 1-35, 4-[(5S)-5-(3,5-difluorophenyl)-3-oxo-6,7-dihydro-3H-pyrrolo[2,1-c][1,2,4]triazol-2(5H)-yl]bicyclo[2.1.1]hexane-1-carbonitrile], the EC50 came to 49.7 nM.

In the case of `O=c1n(C23CC(F)(C2)C3)nc2n1[C@H](c1cc(F)cc(F)c1)CCC2` [Compound 1-58, (S)-5-(3,5-difluorophenyl)-2-(3-fluorobicyclo[1.1.1]pentan-1-yl)-5,6,7,8-tetrahydro-[1,2,4]triazolo[4,3-a]pyridin-3(2H)-one], the EC50 was 45.9 nM.

`O=c1n(C23CC(F)(C2)C3)nc2n1[C@H](c1cc(F)cc(F)c1)C[C@@H]2O` [Compound 5-2, (5S,7S)-5-(3,5-difluorophenyl)-2-(3-fluorobicyclo[1.1.1]pentan-1-yl)-7-hydroxy-2,5,6,7-tetrahydro-3H-pyrrolo[2,1-c][1,2,4]triazol-3-one]: the concentration giving a half-maximal response (EC50) amounted to 25.7 nM.

As to `N#CC12CC(n3nc4n(c3=O)C(c3cnccn3)CC4)(C1)C2` (racemic) [Compound 4-1, (±)-3-(3-oxo-5-(pyrazin-2-yl)-6,7-dihydro-3H-pyrrolo[2,1-c][1,2,4]triazol-2(5H)-yl)bicyclo[1.1.1]pentane-1-carbonitrile], the half-maximal effective concentration (EC50) was found to be 385 nM.

In the case of `O=c1n(C23CC(Cl)(C2)C3)nc2n1[C@H](c1cnccn1)CC2` [Compound 1-59, (S)-2-(3-chlorobicyclo[1.1.1]pentan-1-yl)-5-(pyrazin-2-yl)-2,5,6,7-tetrahydro-3H-pyrrolo[2,1-c][1,2,4]triazol-3-one], the EC50 was found to be 53.9 nM.

For the compound `N#CC12CC(n3nc4n(c3=O)[C@H](c3ccccc3F)CC4)(C1)C2` [Compound 1-23, 3-[(5S)-5-(2-fluorophenyl)-3-oxo-6,7-dihydro-3H-pyrrolo[2,1-c][1,2,4]triazol-2(5H)-yl]bicyclo[1.1.1]pentane-1-carbonitrile], the EC50 is 31.8 nM.

Regarding `O=c1n(C23CC(C(F)F)(C2)C3)nc2n1[C@H](c1cccc(F)c1)CC2` [Compound 1-33, (5S)-2-[3-(difluoromethyl)bicyclo[1.1.1]pentan-1-yl]-5-(3-fluorophenyl)-2,5,6,7-tetrahydro-3H-pyrrolo[2,1-c][1,2,4]triazol-3-one], the EC50 is 30.4 nM.

As for `O=c1n(C23CC(F)(C2)C3)nc2n1[C@H](c1cc(F)cc(F)c1)CC2F` (single isomer, unassigned) [Compound 6-1, (5S)-5-(3,5-difluorophenyl)-7-(S or R)-fluoro-2-(3-fluorobicyclo[1.1.1]pentan-1-yl)-2,5,6,7-tetrahydro-3H-pyrrolo[2,1-c][1,2,4]triazol-3-one], the EC50 is 116 nM.

With `Cc1c(F)cc([C@@H]2CCc3nn(C45CC(F)(C4)C5)c(=O)n32)cc1Cl` [Compound 1-72, (S)-5-(3-chloro-5-fluoro-4-methylphenyl)-2-(3-fluorobicyclo[1.1.1]pentan-1-yl)-2,5,6,7-tetrahydro-3H-pyrrolo[2,1-c][1,2,4]triazol-3-one], the EC50 came out at 21.2 nM.
